pIC50: −log10 of the molar value. “And” between values parts separate entries of the source, which are not always exact repeats. Identical values can stand only once. “Also recorded” adds a separate entry of the source. Like-named read-outs stand apart in the source and are kept apart here.
What was measured:
[1] = system: γc/Jak3-dependent PHA-activated human T cells; assay: Proliferation of PHA-activated human T cells ([3H]-thymidine); format: cell-based; settings: for pIC50: Homo sapiens
Procedure: (§1) Cell culture and treatment. The rat T-cell line Nb2-11c, originally developed by Dr. Peter Gout (Vancouver, Canada), was grown in RPMI-1640 with 10% fetal calf serum (Intergen, cat. no. 1020-90), 2 mM L-glutamine, 5 mM HEPES, pH 7.3, and penicillin-streptomycin (50 IU/ml and 50 μg/ml, respectively), at 37° C./5% CO2. Freshly explanted normal human T lymphocytes purified by isocentrifugation (Ficoll®; EM Science, Gibbstown, N.J.) were phytohemagglutinin (PHA)-activated for 72 hours as previously described.^23 T lymphocytes were made quiescent by washing and incubating for 24 hours in RPMI-1640 medium containing 1% fetal calf serum before exposure to cytokines. […] The Mannich base 649641P (NC1153) was generously provided by Dr. Jonathan Dimmock College of Pharmacy, University of Saskatchewan, Saskatoon, Saskatchewan, Canada. All cells were then stimulated with 1 nM recombinant human IL-2 (Hoffman-LaRoche, Basel, Switzerland), IL4 or IL7 (PeproTech), or ovine prolactin (PRL) supplied by the National Hormone and Pituitary Program, National Institute of Diabetes, Digestive, and Kidney Disease (Bethesda, Md.), at 37° C. Cell pellets were frozen at −70° C.
(§2) Proliferation assays. Quiescent human primary T-cells, YT or rat Nb2-11c T-cells (5.0×10^4/well) were plated in flat-bottom, 96-well microtiter plates in 200 μl of quiescent media in the absence or presence of 1 nM IL-2, -4, -7 (PeproTech, Rock Hill, N.J.), or PRL. Next, cells were treated for 16 hours with the Mannich base drug and then pulsed for 4 hours with [^3H]-thymidine (0.5 μCi/200 μl) and harvested onto fiberglass filters. [^3H]-thymidine incorporation was analyzed by liquid scintillation counting as previously described,^23 or using standard techniques that are well known in the art.

[2] = system: IL2R-α, -β, and -γ chains; assay: FACS analysis of IL2 receptor expression on PHA-activated T-cell blasts; format: cell-based, human; settings: 50 μM overnight
Procedure: FIG. 7A is a bar graph showing that proliferation of PHA-activated human T cells was blocked by the indicated NCI agents following stimulation with IL-2. FIG. 7B is a FACS analysis of PHA-activated T-cell blasts that were treated without (heavy line) or with 50 μM NC1153 (light line) overnight and stained for IL2R-α, -β, and -γchains. FIG. 7C is a graph of cell growth inhibition over a range of NC1153 concentration in non-Jak3 expressing Jurkat cells (black diamonds) and in Jak3 containing PHA activated T-cells (open boxes). FIG. 7D is a graph of cell growth inhibition versus NC1153 concentration in T-cells stimulated by cytokines that utilize Jak3 and the common gamma chain.
Also shown (FIG. 7B) is a graph showing the FACS analysis of PHA-activated T-cell blasts that were treated without (heavy line) or with 50 μM NC1153 (light line) overnight and stained for IL2R-α, -β, and -γ chains. The dashed lines indicate cells pretreated with NC1153. […] Data are normalized as percent of vehicle control. NC1153 inhibits growth of cells by cytokines that utilize Jak3 and the common gamma chain (FIG. 7D). […] Thus, the inhibitory effects of NC1153 are not limited to cells stimulated only by IL-2. Instead, the entire family of cytokines which use Jak3 are blocked by NC1153.

[3] = Oral bioavailability estimated from allograft survival p.o. versus i.v.; settings: ACI, rat, in vivo, 80 mg/kg p.o. gave similar survivals as 10 mg/kg i.v.
Procedure: (§3) To test the in vivo effects, recipients of kidney allografts were treated with 649641P (NC1153) for 7 days beginning immediately after transplantation. […] A mean survival time (MST) and SD was calculated for each group from 5-6 experiments.

LEW kidney allografts = assay: Rat kidney allograft survival (LEW donors to ACI recipients); format: in vivo
Excerpt: Rat Kidney Transplants. Adult male ACI (RT1^a) and Lewis (LEW; RT1^1) rats (160-200 g) obtained from Harlan Sprague-Dawley (Indianapolis, Ind.) were cared for according to the guidelines of the Animal Welfare Committee. Rats were housed in light- and temperature-controlled quarters and given chow and water ad libitum. Kidneys were transplanted heterotopically from LEW donors to ACI recipients using a standard microsurgical technique of Ono and Lindsey^28. […] A control group of recipients remained untreated. […] Graft survival time was defined as animal survival of life supporting kidney transplant.
as §3
A MST and SD were calculated for each group from 5-6 experiments. The combination index (CI) values were calculated.

[4] = Kidney function and lipid metabolism in rats on low-salt diet (FIGS. 11A-F); format: in vivo, rat; settings: 160 mg/kg oral gavage, 14 day therapy
[5] = system: rat T cell line (Nb2-11c); assay: Proliferation of rat Nb2-11c T cells, IL-2 (Jak3) versus PRL (Jak2) stimulated; format: cell-based
Procedure: as §1, §2
The rat T cell line (Nb2-11c) was chosen because it responds to either PRL/Jak2 or IL-2/Jak3 stimulation.
FIG. 14B through FIG. 39B show the chemical formulas of various Mannich base compounds and others (shown as salts) that were screened for ability to inhibit proliferation in prolactin or IL2 stimulated T-cells. […]

CN(C)CC1CCCCCCCCCC(CN(C)C)C1=O (mixture of isomers) [649641P (NC1153)]
pIC50 ([1]; T-cell, 1 nM IL-4, read-out: IC50, IL4 driven cell growth): ~5.60
pIC50 ([1]; T-cell, 1 nM IL-7, read-out: IC50, IL7 driven cell growth): ~5.60
pIC50 ([1]; IL-2 driven T-cell growth, 16 hours drug, [3H]-thymidine, read-out: IC50, disrupting cell growth): ~5.60
IL2, IL4 or IL7 driven growth normalized to untreated controls ([1]; dose dependent): inhibits IL2, IL4 or IL7 driven growth
IL2 receptor expression [2]: failed to affect IL2 receptor expression; also recorded: unaffected
bioavailability [3]: ~12.5%
MST ± SD (LEW kidney allografts; 649641P (NC1153) 2.5 mg/kg/d i.v. × 7 days alone): 9.5 ± 1.4 days and 9.5 ± 1.5 days
MST ± SD (LEW kidney allografts; 649641P (NC1153) 5.0 mg/kg/d i.v. × 7 days alone): 12.2 ± 1.5 days
MST ± SD (LEW kidney allografts; 649641P (NC1153) 10.0 mg/kg/d i.v. × 7 days alone): 18.8 ± 1.1 days
MST ± SD (LEW kidney allografts; 649641P (NC1153) 20.0 mg/kg/d i.v. × 7 days alone): 24.8 ± 6.6 days and 24.8 ± 4.6 days
MST ± SD (LEW kidney allografts; 649641P (NC1153) 40.0 mg/kg/d p.o. × 7 days alone): 12.3 ± 1.26 days
MST ± SD (LEW kidney allografts; 649641P (NC1153) 80.0 mg/kg/d p.o. × 7 days alone): 18.6 ± 5.32 days
MST ± SD (LEW kidney allografts; 649641P (NC1153) 160.0 mg/kg/d p.o. × 7 days alone): 31.0 ± 3.9 days
MST (LEW kidney allografts; 649641P (NC1153) 240 mg/kg/day p.o. for 7 days): 47.8 ± 19.59 days
rat kidney allograft survival (LEW kidney allografts; given alone, i.v. or oral gavage, 7 days): prolonged rat kidney allograft survival in a dose-dependent fashion
nephrotoxicity and lipid metabolism (serum creatinine, clearance, cholesterol, triglycerides, LDL, HDL) [4]: is not nephrotoxic and does not affect lipid metabolism
effectiveness for inhibiting Jak3- versus Jak2-dependent proliferation ([5]; 1 nM IL-2 vs 1 nM PRL, 0-100 μM, 16 hours): 3 fold
selective inhibition of IL-2/Jak3-dependent versus PRL/Jak2-dependent T-cell proliferation ([5]; IL-2 vs PRL stimulated): selectively inhibits γc/Jak3-dependent but not PRL/Jak2-dependent cell proliferation
inhibition of cell proliferation in response to IL-2, IL-4 and IL-7 ([5]; as printed: Nb2-11c cells): equally effective

From patent publication US7365096B2, “Methods for selectively inhibiting Janus tyrosine kinase 3 (Jak3)” (Board of Regents, The University of Texas System, priority 2002, dated 2008)
